Source: patent US11154529B2, “Phosphaplatin liquid formulations” (Phosplatin Therapeutics Inc., priority 2016, dated 2021)

Assay: Ready-to-use formulation stability at 2-8° C., 5 mg/mL (R,R)-pyrodach-2 in 10 mM Potassium Phosphate Buffer at pH 7.4, 10 mL vials
Type: physicochemical
Experimental: A scalable and commercially viable process for the manufacture of a ready-to-use formulation of (R,R)-pyrodach-2 in 10 mM buffer adjusted to a pH of 7.0-7.5 comprises the steps of: a) preparing a 10 mM aqueous solution of buffer; b) adding sufficient hydroxide base to effect neutralization of the added (R,R)-pyrodach-2 to reach a pH of about 7; c) adding (R,R)-pyrodach-2 and allowing it to dissolve; d) if necessary adding additional hydroxide to adjust the pH into a range of about 7.0-7.5; and e) filtering the solution under sterile conditions, filling the solution into glass vials, and covering it with a stopper and/or a cap. Stability data on two large batches of 5 mg/mL (R,R)-pyrodach-2 in 10 mM potassium phosphate buffer were generated. One such batch at pH=7.2 was evaluated at both 25° C./60% RH and refrigerated (2-8° C.) conditions, with data summarized in Table 4 and Table 5, respectively. […] Similar observations have been made for the ready-to-use liquid formulation at pH7.4, as illustrated in Table 6 and Table 7.
• Transfer 4564.6 mg±0.5 mg of potassium phosphate dibasic, trihydrate to a 2-L volumetric flask. • Fill flask to approximately 75% volume with water, swirl as needed to dissolve all solids. • Volumetrically transfer 32.0 mL of 1N KOH to flask. • Dilute flask to volume with water and mix well. • Record pH of final solution. This is the diluent. • Transfer 7653.1 mg±0.5 mg of (R,R)-pyrodach-2 to a compounding vessel. • Transfer 1500 mL of the diluent to the vessel and stir to dissolve solids. • Record pH of final solution. • Pass entire solution through a 0.22 μm sterile filter membrane into a sterile collection vessel. • Calculate (R,R)-pyrodach-2 solution concentration
To a […] glass beaker equipped with mechanical mixer was add 24645.5 g of sterile water for injection. With agitation 47.03 gm of dibasic potassium phosphate USP was added and the solids allowed to dissolve. To the stirred solution was added 253.8 gm of 1.00 N potassium hydroxide. Sterile water for injection USP (900.0 gm) was used as a rinse to facilitate both additions. With vigorous agitation, (R,R)-pyrodach-2 (201.87 gm) was slowly added and agitation continued until all of the solids dissolved. Sterile water for injection USP (900.0 gm) was used as a rinse to facilitate the addition. The pH was determined to be 6.7. A total of 85 mL of 1.00 N potassium hydroxide was added in 5.0 mL aliquots to adjust the pH to 7.3. The solution was sterile filtered through 0.22μ Millipore Millipack filter and aseptically filled, 10 ml top a vial in 10 mL in 10 cc Wheaton clear molded vails, stoppered with a 20 mm stopper and crimp seal capped.

In the case of `O=P1(O)OP(=O)(O)[O][Pt]2([NH][C@@H]3CCCC[C@H]3[NH]2)[O]1` (stereo partly drawn) [(R,R)-pyrodach-2, (R,R)-trans-1,2-cyclohexanediamine-(dihydrogenpyrophosphato)platinum(II)], the “(DACH) Pt-diaquo (~RRT 0.3)” value (1 Month) is reported as 0.15%, the “(DACH) Pt-monoaquo (~RRT 0.7)” value (1 Month) is reported as 1.04% and the “Assay (Potency)” value (1 Month) is reported as 98.7%. The “PT-112 Dimer (~RRT 4.0)” value (1 Month) was 0.33%, the “RRT 0.50” value (1 Month) was 0.06% and the “RRT 0.56” value (1 Month) was 0.10%. The “RRT 0.68” value (1 Month) was 0.19%, the “RRT 0.86” value (1 Month) was 0.05% and the “RRT 3.1-3.2” value (1 Month) was 0.13%. The “Total Related Substances” value (1 Month) was 2%, the pH (1 Month) was 7.4 and the “(DACH) Pt-diaquo (~RRT 0.3)” value (3 Month) was 0.14%. The “(DACH) Pt-monoaquo (~RRT 0.7)” value (3 Month) was 0.92%, the “Assay (Potency)” value (3 Month) was 99.7% and the “PT-112 Dimer (~RRT 4.0)” value (3 Month) was 0.37%. The “RRT 0.50” value (3 Month) was 0.06%, the “RRT 0.56” value (3 Month) was 0.12% and the “RRT 0.68” value (3 Month) was 0.11%. For the same compound, the “RRT 3.1-3.2” value (3 Month) was 0.25%, the “Total Related Substances” value (3 Month) was 2% and the pH (3 Month) was 7.4. For the same compound, the “(DACH) Pt-diaquo (~RRT 0.3)” value (6 Month) was 0.17%, the “(DACH) Pt-monoaquo (~RRT 0.7)” value (6 Month) was 0.28% and the “Assay (Potency)” value (6 Month) was 98.2%. For the same compound, the “PT-112 Dimer (~RRT 4.0)” value (6 Month) was 0.36%, the “RRT 0.46” value (6 Month) was 0.06% and the “RRT 0.50” value (6 Month) was 0.18%. The “RRT 0.56” value (6 Month) was 0.06%, the “RRT 0.68” value (6 Month) was 0.16% and the “RRT 0.86” value (6 Month) was 0.05%. For the same compound, the “RRT 3.1-3.2” value (6 Month) was 0.38%, the “Total Related Substances” value (6 Month) was 2% and the pH (6 Month) was 7.4. The “Particulate Matter (Light Obscuration)” value (6 Month, first value) was 83 particles particles per container, the “Particulate Matter (Light Obscuration)” value (6 Month, second value) was 1 particles particles per container and the “(DACH) Pt-diaquo (~RRT 0.3)” value (9 Month) was 0.14%. The “(DACH) Pt-monoaquo (~RRT 0.7)” value (9 Month) was 0.81%, the “Assay (Potency)” value (9 Month) was 100.2% and the “PT-112 Dimer (~RRT 4.0)” value (9 Month) was 0.33%. For the same compound, the “RRT 0.46” value (9 Month) was 0.05%, the “RRT 0.50” value (9 Month) was 0.18% and the “RRT 0.56” value (9 Month) was 0.07%. The “RRT 0.68” value (9 Month) was 0.08%, the “RRT 0.86” value (9 Month) was 0.05% and the “RRT 3.1-3.2” value (9 Month) was 0.39%. The “RRT 3.58” value (9 Month) was 0.07%, the “Total Related Substances” value (9 Month) was 2% and the pH (9 Month) was 7.4. For the same compound, the “(DACH) Pt-diaquo (~RRT 0.3)” value (12 Month) was 0.12%, the “(DACH) Pt-monoaquo (~RRT 0.7)” value (12 Month) was 0.96% and the “Assay (Potency)” value (12 Month) was 98.7%. The “PT-112 Dimer (~RRT 4.0)” value (12 Month) was 0.34%, the “RRT 0.50” value (12 Month) was 0.15% and the “RRT 0.56” value (12 Month) was 0.16%. For the same compound, the “RRT 0.68” value (12 Month) was 0.11%, the “RRT 0.86” value (12 Month) was 0.05% and the “RRT 3.1-3.2” value (12 Month) was 0.48%. For the same compound, the “Total Related Substances” value (12 Month) was 2%, the pH (12 Month) was 7.4 and the “Particulate Matter (Light Obscuration)” value (12 Month, first value) was 124 particles per container. For the same compound, the “Particulate Matter (Light Obscuration)” value (12 Month, second value) was 6 particles particles per container, the “(DACH) Pt-diaquo (~RRT 0.3)” value (15 Month) was 0.14% and the “(DACH) Pt-monoaquo (~RRT 0.7)” value (15 Month) was 0.94%. For the same compound, the “Assay (Potency)” value (15 Month) was 98.0%, the “PT-112 Dimer (~RRT 4.0)” value (15 Month) was 0.34% and the “RRT 0.50” value (15 Month) was 0.16%. For the same compound, the “RRT 0.56” value (15 Month) was 0.17%, the “RRT 0.68” value (15 Month) was 0.12% and the “RRT 0.86” value (15 Month) was 0.06%. The “RRT 3.1-3.2” value (15 Month) was 0.59%, the “RRT 3.58” value (15 Month) was 0.07% and the “Total Related Substances” value (15 Month) was 3%. The pH (15 Month) was 7.4, the “(DACH) Pt-diaquo (~RRT 0.3)” value (18 Month) was 0.13% and the “(DACH) Pt-monoaquo (~RRT 0.7)” value (18 Month) was 0.76%. The “Assay (Potency)” value (18 Month) was 97.5%, the “PT-112 Dimer (~RRT 4.0)” value (18 Month) was 0.33% and the “RRT 0.46” value (18 Month) was 0.09%. For the same compound, the “RRT 0.50” value (18 Month) was 0.26%, the “RRT 0.56” value (18 Month) was 0.06% and the “RRT 0.68” value (18 Month) was 0.08%. The “RRT 0.86” value (18 Month) was 0.05%, the “RRT 3.1-3.2” value (18 Month) was 0.58% and the “RRT 3.58” value (18 Month) was 0.10%. For the same compound, the “Total Related Substances” value (18 Month) was 2%, the pH (18 Month) was 7.4 and the “(DACH) Pt-diaquo (~RRT 0.3)” value (21 Month) was 0.12%. The “(DACH) Pt-monoaquo (~RRT 0.7)” value (21 Month) was 1.07%, the “Assay (Potency)” value (21 Month) was 97.4% and the “PT-112 Dimer (~RRT 4.0)” value (21 Month) was 0.35%. The “RRT 0.46” value (21 Month) was 0.07%, the “RRT 0.50” value (21 Month) was 0.23% and the “RRT 0.56” value (21 Month) was 0.12%. The “RRT 0.68” value (21 Month) was 0.14%, the “RRT 0.86” value (21 Month) was 0.05% and the “RRT 3.1-3.2” value (21 Month) was 0.67%. For the same compound, the “RRT 3.58” value (21 Month) was 0.10%, the “Total Related Substances” value (21 Month) was 3% and the pH (21 Month) was 7.4. For the same compound, the “(DACH) Pt-diaquo (~RRT 0.3)” value (24 Month) was 0.11%, the “(DACH) Pt-monoaquo (~RRT 0.7)” value (24 Month) was 0.93% and the “Assay (Potency)” value (24 Month) was 96.5%. The “PT-112 Dimer (~RRT 4.0)” value (24 Month) was 0.33%, the “RRT 0.46” value (24 Month) was 0.08% and the “RRT 0.50” value (24 Month) was 0.25%. For the same compound, the “RRT 0.56” value (24 Month) was 0.12%, the “RRT 0.68” value (24 Month) was 0.11% and the “RRT 0.86” value (24 Month) was 0.06%. For the same compound, the “RRT 3.1-3.2” value (24 Month) was 0.65%, the “RRT 3.58” value (24 Month) was 0.14% and the “Total Related Substances” value (24 Month) was 3%. The pH (24 Month) was 7.4, the “(DACH) Pt-diaquo (~RRT 0.3)” value (Initial) was 0.16% and the “(DACH) Pt-monoaquo (~RRT 0.7)” value (Initial) was 0.84%. For the same compound, the “Assay (Potency)” value (Initial) was 98.1%, the “PT-112 Dimer (~RRT 4.0)” value (Initial) was 0.34% and the “RRT 0.50” value (Initial) was 0.06%. For the same compound, the “RRT 0.56” value (Initial) was 0.08%, the “RRT 0.68” value (Initial) was 0.09% and the “RRT 3.1-3.2” value (Initial) was 0.11%. For the same compound, the “Total Related Substances” value (Initial) was 2%, the pH (Initial) was 7.4 and the “Particulate Matter (Light Obscuration)” value (Initial, first value) was 30 particles particles per container. For the same compound, the “Particulate Matter (Light Obscuration)” value (Initial, second value) was 11 particles particles per container.
